How the values were obtained:
[1] = tested on: SR; assay: NCI60 screening; type: cell-based; settings: Homo sapiens, Leukemia panel
Excerpt: (§1) With these findings, we submitted compound 8t to National Cancer Institute (NCI) to evaluate their antitumor efficacy against 60 human cancer cell lines.

[2] = tested on: SW-620; assay: NCI60 screening; type: cell-based; settings: Homo sapiens, Colon Cancer panel
Excerpt: as §1

[3] = tested on: UO-31; assay: NCI60 screening; type: cell-based; settings: Homo sapiens, Renal Cancer panel
Excerpt: as §1

[4] = tested on: RXF 393; assay: NCI60 screening; type: cell-based; settings: Homo sapiens, Renal Cancer panel
Excerpt: as §1

[5] = tested on: OVCAR-4; assay: NCI60 screening; type: cell-based; settings: Homo sapiens, Ovarian Cancer panel
Excerpt: as §1

[6] = tested on: BT-549; assay: NCI60 screening; type: cell-based; settings: Homo sapiens, Breast Cancer panel
Excerpt: as §1

[7] = tested on: NCI-H460; assay: NCI60 screening; type: cell-based; settings: Homo sapiens, Non-Small Cell Lung Cancer panel
Excerpt: as §1

[8] = tested on: KM12; assay: NCI60 screening; type: cell-based; settings: Homo sapiens, Colon Cancer panel
Excerpt: as §1

[9] = tested on: MCF7; assay: NCI60 screening; type: cell-based; settings: Homo sapiens, Breast Cancer panel
Excerpt: as §1

[10] = tested on: MOLT-4; assay: NCI60 screening; type: cell-based; settings: Homo sapiens, Leukemia panel
Excerpt: as §1

[11] = tested on: EKVX; assay: NCI60 screening; type: cell-based; settings: Homo sapiens, Non-Small Cell Lung Cancer panel
Excerpt: as §1

[12] = tested on: UACC-257; assay: NCI60 screening; type: cell-based; settings: Homo sapiens, Melanoma panel
Excerpt: as §1

[13] = tested on: CAKI-1; assay: NCI60 screening; type: cell-based; settings: Homo sapiens, Renal Cancer panel
Excerpt: as §1

[14] = tested on: A549/ATCC; assay: NCI60 screening; type: cell-based; settings: Homo sapiens, Non-Small Cell Lung Cancer panel
Excerpt: as §1

[15] = tested on: NCI-H23; assay: NCI60 screening; type: cell-based; settings: Homo sapiens, Non-Small Cell Lung Cancer panel
Excerpt: as §1

[16] = tested on: OVCAR-5; assay: NCI60 screening; type: cell-based; settings: Homo sapiens, Ovarian Cancer panel
Excerpt: as §1

[17] = tested on: SNB-75; assay: NCI60 screening; type: cell-based; settings: Homo sapiens, CNS Cancer panel
Excerpt: as §1

[18] = tested on: OVCAR-3; assay: NCI60 screening; type: cell-based; settings: Homo sapiens, Ovarian Cancer panel
Excerpt: as §1

[19] = tested on: PC-3; assay: NCI60 screening; type: cell-based; settings: Homo sapiens, Prostate Cancer panel
Excerpt: as §1

[20] = tested on: HS 578T; assay: NCI60 screening; type: cell-based; settings: Homo sapiens, Breast Cancer panel
Excerpt: as §1

[21] = tested on: MDA-MB-435; assay: NCI60 screening; type: cell-based; settings: Homo sapiens, Melanoma panel
Excerpt: as §1

[22] = tested on: CCRF-CEM; assay: NCI60 screening; type: cell-based; settings: Homo sapiens, Leukemia panel
Excerpt: as §1

[23] = tested on: HCT-15; assay: NCI60 screening; type: cell-based; settings: Homo sapiens, Colon Cancer panel
Excerpt: as §1

[24] = tested on: SN12C; assay: NCI60 screening; type: cell-based; settings: Homo sapiens, Renal Cancer panel
Excerpt: as §1

[25] = tested on: HOP-92; assay: NCI60 screening; type: cell-based; settings: Homo sapiens, Non-Small Cell Lung Cancer panel
Excerpt: as §1

[26] = tested on: HCC-2998; assay: NCI60 screening; type: cell-based; settings: Homo sapiens, Colon Cancer panel
Excerpt: as §1

[27] = tested on: SK-OV-3; assay: NCI60 screening; type: cell-based; settings: Homo sapiens, Ovarian Cancer panel
Excerpt: as §1

[28] = tested on: M14; assay: NCI60 screening; type: cell-based; settings: Homo sapiens, Melanoma panel
Excerpt: as §1

[29] = tested on: RPMI-8226; assay: NCI60 screening; type: cell-based; settings: Homo sapiens, Leukemia panel
Excerpt: as §1

[30] = tested on: NCI-H322M; assay: NCI60 screening; type: cell-based; settings: Homo sapiens, Non-Small Cell Lung Cancer panel
Excerpt: as §1

[31] = tested on: A498; assay: NCI60 screening; type: cell-based; settings: Homo sapiens, Renal Cancer panel
Excerpt: as §1

[32] = tested on: IGROV1; assay: NCI60 screening; type: cell-based; settings: Homo sapiens, IGROV-1; Ovarian Cancer panel
Excerpt: as §1

[33] = tested on: COLO 205; assay: NCI60 screening; type: cell-based; settings: Homo sapiens, Colon Cancer panel
Excerpt: as §1

[34] = tested on: NCI/ADR-RES; assay: NCI60 screening; type: cell-based; settings: Homo sapiens, Ovarian Cancer panel
Excerpt: as §1

[35] = tested on: OVCAR-8; assay: NCI60 screening; type: cell-based; settings: Homo sapiens, Ovarian Cancer panel
Excerpt: as §1

[36] = tested on: HOP-62; assay: NCI60 screening; type: cell-based; settings: Homo sapiens, Non-Small Cell Lung Cancer panel
Excerpt: as §1

[37] = tested on: SF-539; assay: NCI60 screening; type: cell-based; settings: Homo sapiens, CNS Cancer panel
Excerpt: as §1

[38] = tested on: SNB-19; assay: NCI60 screening; type: cell-based; settings: Homo sapiens, CNS Cancer panel
Excerpt: as §1

[39] = tested on: SK-MEL-2; assay: NCI60 screening; type: cell-based; settings: Homo sapiens, Melanoma panel
Excerpt: as §1

[40] = tested on: SF-268; assay: NCI60 screening; type: cell-based; settings: Homo sapiens, CNS Cancer panel
Excerpt: as §1

[41] = tested on: HL-60(TB); assay: NCI60 screening; type: cell-based; settings: Homo sapiens, Leukemia panel
Excerpt: as §1

[42] = tested on: UACC-62; assay: NCI60 screening; type: cell-based; settings: Homo sapiens, Melanoma panel
Excerpt: as §1

[43] = tested on: K-562; assay: NCI60 screening; type: cell-based; settings: Homo sapiens, K562; Leukemia panel
Excerpt: as §1

[44] = tested on: MDA-MB-231; assay: NCI60 screening; type: cell-based; settings: Homo sapiens, Breast Cancer panel
Excerpt: as §1

[45] = tested on: MALME-3M; assay: NCI60 screening; type: cell-based; settings: Homo sapiens, Melanoma panel
Excerpt: as §1

[46] = tested on: T-47D; assay: NCI60 screening; type: cell-based; settings: Homo sapiens, T47D; Breast Cancer panel
Excerpt: as §1

[47] = tested on: U251; assay: NCI60 screening; type: cell-based; settings: Homo sapiens, U-251; CNS Cancer panel
Excerpt: as §1

[48] = tested on: phosphorylation of STAT5/AKT/ERK; assay: Western blot, phosphorylation of STAT5/AKT/ERK in MV4-11 cells; type: cell-based, human; settings: MV4-11, 4 h, 1 μM
Experimental: Analysis of pFLT3, pSTAT5, pERK, pAKT, and pRb in vitro: to determine the levels of pFLT3, pSTAT5, pERK, pAKT, and pRb, cells were seeded in a 6-well cell culture plate at a density of 400,000 cells per well for MV4-11 in a total volume of 1800 μL and incubated overnight in medium containing 10% fetal bovine serum (Life Technologies, Rockville, MD, USA). Then 200 μL of serially diluted compounds were added to each well the next day. Cell lysates were harvested after 4 h and pFLT3, pSTAT5, pERK, pAKT, or pRb were quantified using assay kits for FLT3/Phospho-FLT3Tyr589/591, pSTAT5 (Tyr694)/total STAT5, pRb (Ser807)/total Rb (Nanjin keyGen Biotech Company, Nanjing, China) following the manufacturer’s protocols.

## O=C(Nc1ccc(N2CCNCC2)cc1)c1n[nH]cc1Nc1ncnc2sc3c(c12)CCC3 [Compound 8t]
[1]
  GI50: 60 nM
[2]
  GI50: 120 nM
[3]
  GI50: 400 nM
[4]
  GI50: 390 nM
[5]
  GI50: 220 nM
[6]
  GI50: 1020 nM
[7]
  GI50: 60 nM
[8]
  GI50: 170 nM
[9]
  GI50: 160 nM
[10]
  GI50: 80 nM
[11]
  GI50: 60 nM
[12]
  GI50: 480 nM
[13]
  GI50: 80 nM
[14]
  GI50: 140 nM
[15]
  GI50: 260 nM
[16]
  GI50: 270 nM
[17]
  GI50: 50 nM
[18]
  GI50: 230 nM
[19]
  GI50: 180 nM
[20]
  GI50: 100 nM
[21]
  GI50: 110 nM
[22]
  GI50: 220 nM
[23]
  GI50: 220 nM
[24]
  GI50: 450 nM
[25]
  GI50: 40 nM
[26]
  GI50: 1200 nM
[27]
  GI50: 260 nM
[28]
  GI50: 120 nM
[29]
  GI50: 890 nM
[30]
  GI50: 140 nM
[31]
  GI50: 140 nM
[32]
  GI50: 120 nM
[33]
  GI50: 120 nM
[34]
  GI50: 1480 nM
[35]
  GI50: 360 nM
[36]
  GI50: 370 nM
[37]
  GI50: 390 nM
[38]
  GI50: 240 nM
[39]
  GI50: 1160 nM
[40]
  GI50: 720 nM
[41]
  GI50: 1150 nM
[42]
  GI50: 1090 nM
[43]
  GI50: 120 nM
[44]
  GI50: 1930 nM
[45]
  GI50: 240 nM
[46]
  GI50: 590 nM
[47]
  GI50: 110 nM
[48]
  phosphorylation of STAT5/AKT/ERK: completely blocked

— paper PMC6887723, “Design and Synthesis of 4-(Heterocyclic Substituted Amino)-1H-Pyrazole-3-Carboxamide Derivatives and Their Potent Activity against Acute Myeloid Leukemia (AML)” (International Journal of Molecular Sciences, 2019)
